Experimental data from ChEMBL document CHEMBL1201862, “PubChem BioAssay data set” (2004).
Activity calls are given as the source filed them.

Experiments:
Cytochrome P450 2C9 = Cytochrome P450 2C9 (Homo sapiens, UniProt P11712)
Cytochrome P450 2D6 = Cytochrome P450 2D6 (Homo sapiens, UniProt P10635);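 note: CYP2D6 member of a cytochrome P450 panel assay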
Cytochrome P450 3A4 = Cytochrome P450 3A4 (Homo sapiens, UniProt P08684);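 note: CYP3A4 tested as one member of a cytochrome P450 panel screen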
[1] = Luminescence Cell-Based Dose Response HTS to Identify Inhibitors of 5'UTR Stem-Loop Driven Prion Protein mRNA Translation in H4 Neuroglioblastoma Cells. [Related pubchem assays: 1827 (Project Summary), 1813 (Primary HTS)]; format: functional
[2] = inhibitors of firefly luciferase expression or activity, dose response, H4 neuroglioma cells, luminescence (AID 1990); format: functional, cell-based
[3] = inhibitors of SNCA 5'UTR-driven reporter translation, confirmation, H4 neuroglioma cells, luminescence (AID 1988); format: functional, cell-based
Cytochrome P450 1A2 = molecular target: T1, Cytochrome P450 1A2 (Homo sapiens, UniProt P05177);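 note: PubChem cytochrome P450 panel assay, CYP1A2 panel member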
T1 sequence (P05177 whole entry): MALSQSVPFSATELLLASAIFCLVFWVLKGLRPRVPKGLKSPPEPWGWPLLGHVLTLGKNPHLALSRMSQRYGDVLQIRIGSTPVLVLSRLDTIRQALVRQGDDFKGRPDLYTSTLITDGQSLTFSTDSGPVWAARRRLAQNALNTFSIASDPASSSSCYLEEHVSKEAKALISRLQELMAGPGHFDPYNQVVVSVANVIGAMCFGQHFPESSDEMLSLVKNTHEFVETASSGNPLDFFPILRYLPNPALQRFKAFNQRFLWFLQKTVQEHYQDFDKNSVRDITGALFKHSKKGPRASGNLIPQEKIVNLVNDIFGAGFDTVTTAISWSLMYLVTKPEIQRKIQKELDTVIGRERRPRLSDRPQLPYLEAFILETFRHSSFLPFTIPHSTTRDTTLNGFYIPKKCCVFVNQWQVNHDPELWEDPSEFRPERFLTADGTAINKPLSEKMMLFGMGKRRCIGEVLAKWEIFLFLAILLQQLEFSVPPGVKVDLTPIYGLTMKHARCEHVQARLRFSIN

Cytochrome P450 2C19 = Cytochrome P450 2C19 (Homo sapiens, UniProt P33261); experiment: Cytochrome panel assay with activity outcomes. Panel member name: p450-cyp2c19 Compounds with AC50 equal or less than 10 uM are considered active; format: functional
Chain of Cytochrome P450 2C19 (P33261 whole entry): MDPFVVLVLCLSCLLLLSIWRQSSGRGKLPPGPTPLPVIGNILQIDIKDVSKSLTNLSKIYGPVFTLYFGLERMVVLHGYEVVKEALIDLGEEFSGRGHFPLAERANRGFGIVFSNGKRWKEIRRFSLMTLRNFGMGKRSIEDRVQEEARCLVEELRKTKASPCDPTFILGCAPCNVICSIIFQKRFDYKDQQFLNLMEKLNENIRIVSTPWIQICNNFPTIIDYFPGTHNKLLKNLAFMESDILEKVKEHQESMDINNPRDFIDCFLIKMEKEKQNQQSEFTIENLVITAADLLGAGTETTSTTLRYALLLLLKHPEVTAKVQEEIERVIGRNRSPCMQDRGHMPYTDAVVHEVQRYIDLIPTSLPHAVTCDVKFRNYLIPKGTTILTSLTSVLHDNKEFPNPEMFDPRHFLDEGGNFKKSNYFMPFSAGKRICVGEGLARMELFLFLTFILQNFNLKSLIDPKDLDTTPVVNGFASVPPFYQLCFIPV

[4] = molecular target: T2, Rac GTPase-activating protein 1 (Homo sapiens, UniProt Q9H0H5); experiment: MgcRacGAP GTPase-activating activity inhibitors, confirmation, biochemical, ADP Hunter fluorescence, primary and confirmatory (AID 624330); format: functional
T2 sequence (Q9H0H5 whole entry): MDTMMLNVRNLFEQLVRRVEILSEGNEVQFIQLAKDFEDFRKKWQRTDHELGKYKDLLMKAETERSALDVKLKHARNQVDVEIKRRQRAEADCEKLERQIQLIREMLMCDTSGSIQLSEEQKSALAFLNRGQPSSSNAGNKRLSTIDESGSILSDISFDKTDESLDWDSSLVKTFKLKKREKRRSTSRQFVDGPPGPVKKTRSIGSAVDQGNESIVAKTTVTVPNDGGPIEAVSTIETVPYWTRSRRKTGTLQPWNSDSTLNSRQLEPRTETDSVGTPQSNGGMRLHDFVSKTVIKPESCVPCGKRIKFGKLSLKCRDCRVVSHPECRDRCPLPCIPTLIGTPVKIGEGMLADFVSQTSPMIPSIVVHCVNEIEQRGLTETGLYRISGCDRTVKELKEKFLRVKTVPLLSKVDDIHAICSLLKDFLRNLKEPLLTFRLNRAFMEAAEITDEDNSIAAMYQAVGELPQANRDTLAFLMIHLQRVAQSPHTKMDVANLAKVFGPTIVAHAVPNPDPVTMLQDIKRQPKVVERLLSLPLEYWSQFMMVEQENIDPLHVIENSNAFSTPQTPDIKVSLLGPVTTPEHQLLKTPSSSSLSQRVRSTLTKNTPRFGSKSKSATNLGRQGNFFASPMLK

Chain of Cytochrome P450 3A4 (P08684 whole entry): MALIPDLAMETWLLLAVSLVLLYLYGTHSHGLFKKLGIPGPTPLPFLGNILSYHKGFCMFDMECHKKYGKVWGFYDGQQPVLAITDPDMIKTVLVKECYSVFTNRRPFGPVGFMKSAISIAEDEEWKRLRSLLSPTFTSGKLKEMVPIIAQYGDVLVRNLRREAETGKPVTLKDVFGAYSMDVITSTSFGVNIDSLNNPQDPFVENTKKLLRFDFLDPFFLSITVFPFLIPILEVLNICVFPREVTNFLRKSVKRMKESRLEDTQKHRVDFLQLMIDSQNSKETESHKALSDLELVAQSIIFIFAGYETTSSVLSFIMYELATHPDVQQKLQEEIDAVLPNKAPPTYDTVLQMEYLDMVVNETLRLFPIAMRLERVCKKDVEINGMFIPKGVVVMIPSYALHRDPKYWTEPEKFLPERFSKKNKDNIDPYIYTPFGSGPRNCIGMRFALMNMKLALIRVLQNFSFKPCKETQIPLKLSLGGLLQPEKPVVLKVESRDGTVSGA
Chain of Cytochrome P450 2D6 (P10635 whole entry): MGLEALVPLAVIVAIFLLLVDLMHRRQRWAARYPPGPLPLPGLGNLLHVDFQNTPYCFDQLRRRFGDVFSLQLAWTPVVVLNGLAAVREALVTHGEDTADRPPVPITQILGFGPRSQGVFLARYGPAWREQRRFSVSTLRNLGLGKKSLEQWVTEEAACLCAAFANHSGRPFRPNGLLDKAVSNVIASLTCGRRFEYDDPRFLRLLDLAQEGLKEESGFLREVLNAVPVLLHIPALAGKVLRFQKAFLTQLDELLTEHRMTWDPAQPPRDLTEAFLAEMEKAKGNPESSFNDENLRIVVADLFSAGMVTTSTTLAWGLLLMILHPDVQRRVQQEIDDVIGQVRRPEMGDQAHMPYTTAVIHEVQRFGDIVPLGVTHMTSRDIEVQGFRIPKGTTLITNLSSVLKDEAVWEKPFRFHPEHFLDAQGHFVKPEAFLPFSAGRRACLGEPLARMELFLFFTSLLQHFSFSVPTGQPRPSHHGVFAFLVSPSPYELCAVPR
Chain of Cytochrome P450 2C9 (P11712 whole entry): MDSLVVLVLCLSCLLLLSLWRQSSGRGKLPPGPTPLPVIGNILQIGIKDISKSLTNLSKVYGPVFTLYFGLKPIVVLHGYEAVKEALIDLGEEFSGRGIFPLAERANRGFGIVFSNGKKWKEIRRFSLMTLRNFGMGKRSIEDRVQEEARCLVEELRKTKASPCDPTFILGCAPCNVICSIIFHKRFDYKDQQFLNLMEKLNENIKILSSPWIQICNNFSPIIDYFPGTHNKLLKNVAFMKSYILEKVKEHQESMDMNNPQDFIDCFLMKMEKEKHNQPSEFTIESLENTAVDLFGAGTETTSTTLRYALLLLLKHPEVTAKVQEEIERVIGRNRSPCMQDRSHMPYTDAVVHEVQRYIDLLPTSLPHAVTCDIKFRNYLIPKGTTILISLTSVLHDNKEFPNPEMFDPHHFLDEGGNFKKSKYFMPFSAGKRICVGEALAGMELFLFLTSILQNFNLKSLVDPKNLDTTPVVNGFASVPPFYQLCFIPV

SMILES | AC50 (Cytochrome P450 2C9) | AC50 (Cytochrome P450 3A4) | AC50 (Cytochrome P450 1A2) | further results
COc1ccc(O[C@H]2C=C[C@@H](c3ccccc3)O[C@@H]2CO/N=C(\C)CCN2CCCCc3nc(C)c(C)cc32)cc1 | 6.31 µM (inconclusive) | – | – | –
CC1=CC2=NC(=O)CC(C)(C(=O)N(CC(=O)NC(C)(C)C)Cc3cccs3)N2C=C1 (centres undefined) | 25.1 µM (inconclusive) | – | – | –
Cc1nnc(-c2cccc(Br)c2)c2cn(-c3ccccc3Cl)nc12 | – | 39.8 µM (inconclusive) | – | AC50 (Cytochrome P450 2D6): 28.2 µM (inconclusive)
O=c1c2ccc([N+](=O)[O-])c3cccc(c32)c2nc3ccccc3n12 | – | – | – | EC50 [1]: < 0.1 µM (active); EC50 [2]: < 0.1 µM (active); EC50 [3]: < 0.1 µM (active)
O=c1c(-c2cccs2)nc2cnc(N3CCOCC3)nc2n1Cc1cccs1 | – | 10 µM (inconclusive) | 15.8 µM (inconclusive) | –
Cc1ccc(C(=O)NC(=S)Nc2ccc(S(=O)(=O)N3CCN(C)CC3)cc2)cc1 | – | 0.891 µM (inconclusive) | 12.6 µM (inconclusive) | –
N#CC(C#N)=NNc1ccc2cn[nH]c2c1 | – | 1.58 µM (inconclusive) | – | AC50 (Cytochrome P450 2C19; read-out: AC50): 3.16 µM (inconclusive)
Oc1ccc(/N=C(\S)Nc2ccc(O)cc2)cc1 | – | – | – | IC50 [4]: 41.7 µM (active)
CC(C)OCCCn1c(=S)[nH]c2ncccc2c1=O | 1.78 µM (inconclusive) | – | – | –
Cc1cnn(-c2ccc3nnc(-c4ccc(Cl)cc4)n3n2)c1 | 6.31 µM (inconclusive) | 1.12 µM (inconclusive) | – | AC50 (Cytochrome P450 2C19; read-out: AC50): 1.41 µM (inconclusive)
COCCNC(=O)[C@H](C)[C@@H]1C[C@@]1(C)[C@@H](NC(=O)OCc1ccccc1)c1ccccc1 | 31.6 µM (inconclusive) | – | – | –
Cn1c(=O)c2c(-c3cccc(F)c3)c3c(nc2n(C)c1=O)-c1ccccc1C3O (centres undefined) | 2.82 µM (inconclusive) | 22.4 µM (inconclusive) | – | AC50 (Cytochrome P450 2D6): 79.4 µM (inconclusive)
C=C(CC1([C@@H](NP(=O)(c2ccccc2)c2ccccc2)[C@H]2C[C@@H]2CCCC)CC1)c1cccc(OC)c1 | 39.8 µM (inconclusive) | – | 12.6 µM (inconclusive) | AC50 (Cytochrome P450 2C19; read-out: AC50): 15.8 µM (inconclusive); AC50 (Cytochrome P450 2D6): 39.8 µM (inconclusive)
CN(C)c1ncc2nc(-c3ccccc3)c(=O)n(-c3ccccc3)c2n1 | – | – | 0.398 µM (inconclusive) | –
CC1CCN(c2ccc(NC(=S)NC(=O)c3ccco3)cc2)CC1 | 1.41 µM (inconclusive) | 17.8 µM (inconclusive) | 28.2 µM (inconclusive) | AC50 (Cytochrome P450 2C19; read-out: AC50): 3.98 µM (inconclusive)
COCCNC(=S)Nc1cc(OC)c(OC)cc1C#N | – | – | – | IC50 [4]: 204 µM (active)
CSc1nc(NCc2ccco2)c2sc3nc(C(C)C)c4c(c3c2n1)CC(C)(C)OC4 | – | – | – | EC50 [1]: > 120 µM (not active); EC50 [2]: 27.5 µM (active); EC50 [3]: > 120 µM (not active)
O=C(Nc1ccc(-n2nncc2-c2ccco2)cc1)c1ccc(F)cc1 | 11.2 µM (inconclusive) | – | – | –
O=[N+]([O-])c1cc([N+](=O)[O-])c(Oc2cccc(Cl)c2Cl)cc1NN1CCCCC1 | – | – | – | EC50 [1]: > 120 µM (not active); EC50 [2]: 11.8 µM (active); EC50 [3]: 58.3 µM (active)
CC(=O)Nc1ccc2c(c1)/C(=C/c1ccc([N+](C)(C)C)cc1)c1ccccc1-2 | 3.16 µM (inconclusive) | – | 1.58 µM (inconclusive) | –
CCCCNC(=O)CN1C(=O)NC2(CCCc3ccccc32)C1=O (centres undefined) | – | – | 25.1 µM (inconclusive) | AC50 (Cytochrome P450 2C19; read-out: AC50): 31.6 µM (inconclusive)
Cc1c(N2C(=O)CS/C2=N\N=C\c2ccc(Cl)cc2)c(=O)n(-c2ccccc2)n1C | 31.6 µM (inconclusive) | 28.2 µM (inconclusive) | – | AC50 (Cytochrome P450 2C19; read-out: AC50): 39.8 µM (inconclusive)
O=C(Nc1ccc(F)cc1Cl)c1ccc2c(=O)n3c(nc2c1)CCCCC3 | – | 4.47 µM (inconclusive) | – | AC50 (Cytochrome P450 2C19; read-out: AC50): 3.98 µM (inconclusive)
CN(C)S(=O)(=O)c1ccc(Nc2ccc(O)c3c2C(=O)c2c([N+](=O)[O-])ccc(O)c2C3=O)cc1 | 3.16 µM (inconclusive) | 3.98 µM (inconclusive) | – | AC50 (Cytochrome P450 2D6): 0.794 µM (inconclusive)
O=c1c(-c2ccccc2)c(O)c2cccc3c2n1CCC3 | – | – | 11.2 µM (inconclusive) | –
COc1cc(/C=C/C(=O)OCC(=O)N2CCN(C(=O)c3ccco3)CC2)ccc1O | – | – | – | IC50 [4]: 44.8 µM (active)

SMILES | AC50 (Cytochrome P450 2C9) | AC50 (Cytochrome P450 3A4) | AC50 (Cytochrome P450 1A2) | further results
CCCC(=O)Nc1nnc(Cc2ccccc2)s1 | 10 µM (inconclusive) | 15.8 µM (inconclusive) | – | –
COc1cc(-c2c(C#N)c(N)nc3c2CCCC3)cc(OC)c1OC | – | – | – | EC50 [1]: 17.1 µM (active); EC50 [2]: 27.4 µM (active); EC50 [3]: 19.7 µM (active)
COc1ccc2cc3cc(C(=O)NCc4ccccn4)oc3nc2c1 | – | 39.8 µM (inconclusive) | – | AC50 (Cytochrome P450 2D6): 39.8 µM (inconclusive)
COCC(=O)N1CCC2(CCCN(C(=O)Nc3ccc(OC)cc3)C2)CC1 | – | 39.8 µM (inconclusive) | – | AC50 (Cytochrome P450 2C19): inconclusive
COC(=O)/C=C/c1ccccc1S(=O)(=O)N(Cc1ccccc1)Cc1ccco1 | – | – | – | EC50 [1]: 9.84 µM (active); EC50 [2]: 8.38 µM (inconclusive); EC50 [3]: 5.96 µM (active)
O=C1N[C@@]2(CN3CCC2CC3)C(=O)N1CN(Cc1ccccc1)c1ccccc1 | – | – | 0.398 µM (inconclusive) | AC50 (Cytochrome P450 2C19; read-out: AC50): 1.58 µM (inconclusive)
Cc1cccc(NC(S)=NNC(=O)CCn2cc(C)cn2)c1 | – | – | 25.1 µM (inconclusive) | AC50 (Cytochrome P450 2C19): inconclusive
COCCn1c(=O)cnc2cnc(Oc3ccccc3)nc21 | – | 25.1 µM (inconclusive) | – | –
Cc1cnc(CNc2ncncc2-c2ccccc2C(F)(F)F)cn1 | – | 0.2 µM (inconclusive) | – | AC50 (Cytochrome P450 2C19; read-out: AC50): 39.8 µM (inconclusive)
O=C(O)c1ccc(Oc2nc3ccccc3s2)cc1 | – | – | 3.16 µM (inconclusive) | –
CCCC1S/C(=N/N=C/c2ccc(OC)cc2)N(Cc2ccc(OC)cc2)C1=O (centres undefined) | – | 1 µM (inconclusive) | – | –
COC(=O)c1nn(C23CC4CC(CC(C4)C2)C3)c2c1C(=O)N(c1ccc(F)cc1)C2=O | 12.6 µM (inconclusive) | – | – | AC50 (Cytochrome P450 2C19; read-out: AC50): 39.8 µM (inconclusive)
CC(=O)[C@H](C(=N)C#N)C(=O)Nc1ccccc1 | – | – | 6.31 µM (inconclusive) | AC50 (Cytochrome P450 2C19): inconclusive
COc1ccccc1CN1CCCC2(CCN(C(C)=O)CC2)C1 | – | – | 25.1 µM (inconclusive) | –
COc1ccc(C)cc1NC(=O)CN1CCN(S(=O)(=O)c2ccc(F)cc2)CC1 | – | – | 0.0398 µM (inconclusive) | –
COc1ccc(-c2c[nH]nc2-c2ccc(O)cc2O)cc1OC | – | – | – | IC50 [4]: 60.2 µM (active)
Cc1cc(SC(C)C(=O)NCC(=O)Nc2ccc(F)c(F)c2F)nc2ccccc12 (centres undefined) | – | – | – | EC50 [1]: 92 µM (active); EC50 [2]: > 120 µM (not active); EC50 [3]: 18 µM (active)
Cc1ccc(S(=O)(=O)c2cc(N3CCOCC3)nc(-c3ccccc3)n2)cc1 | 11.2 µM (inconclusive) | – | – | –
Cc1ccccc1CN1CCN(C(=O)c2cccc3ccccc23)CC1 | – | – | – | IC50 [4]: 215 µM (active)
O=C(NCc1ccc(F)cc1)C(c1ccncc1)N(C(=O)c1csnn1)C1CC1 (centres undefined) | 8.91 µM (inconclusive) | – | – | AC50 (Cytochrome P450 2D6): 11.2 µM (inconclusive)
COC(=O)C1=C(C)NC(C)=C(C(=O)OC(C)C)C1c1cccc2nonc12 (centres undefined) [ISRADIPINE] | – | – | 31.6 µM (inconclusive) | –
O=C(Nc1ccccc1)N1CCCC2(CCN(C(=O)c3cc(C(F)(F)F)cc(C(F)(F)F)c3)CC2)C1 | – | – | 31.6 µM (inconclusive) | –
O=C(c1cccc(F)c1)N1CCC2(CCN(Cc3ccncc3)CC2)CC1 | – | 15.8 µM (inconclusive) | 12.6 µM (inconclusive) | AC50 (Cytochrome P450 2C19; read-out: AC50): 25.1 µM (inconclusive); AC50 (Cytochrome P450 2D6): 12.6 µM (inconclusive)
O=C(Nc1ccc(Oc2ncnc3cc(Cl)ccc23)nc1)c1cccs1 | – | – | – | EC50 [1]: > 120 µM (not active); EC50 [2]: > 120 µM (not active); EC50 [3]: > 120 µM (not active)
Cc1cc(=O)oc(C)c1C(=O)Nc1ccc(Cl)cn1 | 20 µM (inconclusive) | – | – | AC50 (Cytochrome P450 2C19; read-out: AC50): 2.24 µM (inconclusive)
